Here are results for 1 compound from patent US9616051B2, “Drug targets to overcome de novo drug-resistance in multiple myeloma” (H. Lee Moffitt Cancer Center and Research Institute, Inc., priority 2008, dated 2017).

“Also recorded” adds a separate entry of the source. Read-outs that look alike come from different tables or passages of the source.

One experiment concerns RPMI-8226 (8226). As to the kind of experiment: CT-Glo cytotoxicity assay, 8226 cells. The format is cell-based, human. To be noted: Homo sapiens, RPMI-8226. An excerpt: (§1) Compounds identified in Example 1 as the top scoring potential inhibitors for each of the two NES (20 each) were obtained from NCI and structures of these molecules confirmed using NMR and mass spectroscopy analysis, seen in FIGS. 4(A)-(C) and 5(A)-(D). The potential inhibitors were followed up using in vitro model cell cultures. MM cell lines NCI-H929 (H929) and RPMI-8226 (8226) were obtained from and tested for authenticity by the American Type Culture Collection (Manassas, Va.). All cell lines were grown as described previously (Turner, et al., Human topoisomerase IIalpha nuclear export is mediated by two CRM-1-dependent nuclear export signals. J Cell Sci 2004; 117: 3061-71).
(§2) The molecules with the highest docking scores were assayed for IC50 values. Cultures were tested for cytotoxicity using the CellTiter-Glo assay (CT-Glo cytotoxicity assay; Promega, Madison, Wis.), a luminescence-based homogeneous method for determining the number of viable cells in culture based on quantitation of the ATP present, which signals the presence of metabolically active cells (Corsino, et al., A novel class of cyclin-dependent kinase inhibitors identified by molecular docking act through a unique mechanism. J Biol Chem 2009; 284: 29945-55; Homsi, et al., Src activation in melanoma and Src inhibitors as therapeutic agents in melanoma. Melanoma Res 2009; 19: 167-75). All cells were assayed at log-phase growth conditions. Luminescence was measured with a Synergy 4 microplate reader (Bio-Tek Instruments, Inc., Winooski, Vt.). IC50 values were determined using a sigmoidal equilibrium model regression using XLfit version 5.2 (ID Business Solutions Ltd., Surrey, UK) (Corsino, et al., A novel class of cyclin-dependent kinase inhibitors identified by molecular docking act through a unique mechanism. J Biol Chem 2009; 284: 29945-55).

For another experiment, the system named is NCI-H929 (H929). The experiment in a line: CT-Glo cytotoxicity assay, H929 cells. The format is cell-based, human. The settings on record: Homo sapiens, NCI-H929, 72-h CT-Glo, average ± SD.
Excerpt: as §1, §2

A further experiment concerns HL-60. The experiment in a line: CT-Glo cytotoxicity assay, HL-60 cells. The format is cell-based. The settings on record: Homo sapiens, 72-h CT-Glo. Here is the method: as §2
A further experiment relates to Kg-1a. The experiment in a line: CT-Glo cytotoxicity assay, Kg-1a cells. It counts as cell-based. To be noted: Homo sapiens, 72-h CT-Glo. Here is the method: as §2
The subject of the next experiment is MCF-7. As to the kind of experiment: CT-Glo cytotoxicity assay, MCF-7 cells. It counts as cell-based. To be noted: Homo sapiens, MCF7, 72-h CT-Glo, average ± SD. Here is the method:
as §2

For a further experiment, the system named is SK-UT. The experiment in a line: CT-Glo cytotoxicity assay, SK-UT cells. It counts as cell-based. To be noted: 72-h CT-Glo, average ± SD. Here is the method:
as §2

The next experiment concerns FLOW. As to the kind of experiment: CT-Glo cytotoxicity assay, FLOW cells. The format is cell-based. The settings on record: 72-h CT-Glo, average ± SD. Here is the method:
as §2

The subject of the next experiment is WI-38. The experiment in a line: CT-Glo cytotoxicity assay, WI-38 cells. It counts as cell-based. To be noted: Homo sapiens, 72-h CT-Glo. Here is the method:
as §2

Experiment [1] deals with T1, topo IIα (Homo sapiens, UniProt P11388).
T1 construct: effect on the intracellular location of topo IIα in treated MM cells; endogenous in cells; host or cells: human multiple myeloma cells NCI-H929
As to the kind of experiment: Immunofluorescence microscopy of intracellular location of topo IIα. To be noted: 25 μM NES inhibitor. It counts as cell-based. Here is the method: Slides were viewed with a fully automated, upright Zeiss Axio-ImagerZ.1 microscope (Carl Zeiss A G, Oberkochen, Germany). Briefly, the DAPI image was used as a mask to segment the nuclear region from the Alexa 594 image. The remaining portion of the Alexa 594 image represents the cytosol, and individual nucleus and cytosol images were analyzed.
H929 cells were mock treated with 0.1% DMSO in media or with 25 μM of NES inhibitor. The high density control cells, seen in FIG. 9(A) show high levels of topo II staining outside the nucleus, evidencing export of topo II from the nucleus.

The target of experiment [2] is T1, topo IIα. As to the kind of experiment: Nuclear-cytoplasmic fractionation and Western blot for topo IIα. It counts as cell-based. The settings on record: high-density RPMI-H929 cells, 25 μM, FIG. 13 legend. Here is the method: FIGS. 13(A) and (B) are blots from nuclear (nuc)-cytoplasmic (cyto) fractionation of high-density MM cells (n=2). […] Human myeloma RPMI-H929 cells were treated for 24 hours. Cells were then chemically separated into nuclear and cytoplasmic fractions.
Human myeloma cells were placed at plateau concentrations (4×10^6 cells/ml), and NES inhibitors were added at 25 μM for 20 hours. Cells were collected, washed in PBS, and fractionated by a method adapted from Li et al. (Li Y, Bor Y C, Misawa Y, Xue Y, Rekosh D, Hammarskjold M L. An intron with a constitutive transport element is retained in a Tap messenger RNA. Nature 2006; 443: 234-7). Separated fractions containing nuclei or precipitated cytosol were dissolved in 2% SDS buffer and assayed by SDS-PAGE Western blot analysis. Blots were probed with an anti-topo IIα Kis1 antibody (Millipore Corp.). […] Cells grown at log-phase concentrations were also fractionated. After MM cells were treated with NCI-9138 at 25 μM for 20 hours, CRM1-topo IIα complexes were isolated from cells by immunoprecipitation using a combination of both protein A and protein G magnetic beads according to the manufacturer's protocol (Miltenyi Biotec, Cologne, Germany). Co-immunoprecipitation was performed with 2 μg of anti-CRM1 antibody (Santa Cruz Biotechnology, Inc., Santa Cruz, Calif.). Immunoprecipitation samples were separated by SDS-PAGE, transferred to nitrocellulose membranes, and probed with anti-topo IIα Kis1 antibody (Millipore, Corp., Billerica, Mass.) and anti-mouse horseradish peroxidase secondary antibody.

In the next experiment the test system is p53. As to the kind of experiment: p53 nuclear export in low-density myeloma cells (nuclear fraction Western blot). It counts as cell-based, human. The settings on record: H929 at low density (log growth), 25 μM, 20 hours. Here is the method:
FIG. 14 is a blot of lead compounds tested to determine if nuclear export inhibition was specific to topo IIα protein. p53 was cycled from the nucleus into the cytoplasm in MM cells cultured at log growth conditions. Cells grown at log-phase concentrations were treated with the lead NES inhibitors (25 μM) or a leptomycin control for 20 hours and chemically fractionated. Nuclei were assayed by SDS-PAGE Western blot analysis for p53 protein (anti-p53 (DO-1), Santa Cruz Biotech, Inc). […] Lamin A/C (anti-lamin A/C, BD Pharmingen) is shown as a loading control.
Cells grown at low concentrations were treated with the lead NES inhibitors (25 μM) or a leptomycin B (5 nM) control for 20 hours and chemically fractionated. Nuclei were assayed by SDS-PAGE Western blot analysis for p53 protein.

Experiment [3] deals with cells modeling AML, breast cancer and fibroblastoma. As to the kind of experiment: Combination of NCI-9138 with other drugs (FIG. 8). The settings on record: 25 μM with doxorubicin 2 μM, bortezomib 10 nM, dexamethasone, lenalidomide, melphalan, topotecan 10 μM. It counts as cell-based.
The target of experiment [4] is T1, topo IIα. The experiment in a line: Nuclear-cytoplasmic fractionation and Western blot for topo IIα. The settings on record: RPMI-H929 cells, 100 μM, 24 hours, relative to untreated controls. The format is cell-based.

T1 sequence (P11388 whole entry): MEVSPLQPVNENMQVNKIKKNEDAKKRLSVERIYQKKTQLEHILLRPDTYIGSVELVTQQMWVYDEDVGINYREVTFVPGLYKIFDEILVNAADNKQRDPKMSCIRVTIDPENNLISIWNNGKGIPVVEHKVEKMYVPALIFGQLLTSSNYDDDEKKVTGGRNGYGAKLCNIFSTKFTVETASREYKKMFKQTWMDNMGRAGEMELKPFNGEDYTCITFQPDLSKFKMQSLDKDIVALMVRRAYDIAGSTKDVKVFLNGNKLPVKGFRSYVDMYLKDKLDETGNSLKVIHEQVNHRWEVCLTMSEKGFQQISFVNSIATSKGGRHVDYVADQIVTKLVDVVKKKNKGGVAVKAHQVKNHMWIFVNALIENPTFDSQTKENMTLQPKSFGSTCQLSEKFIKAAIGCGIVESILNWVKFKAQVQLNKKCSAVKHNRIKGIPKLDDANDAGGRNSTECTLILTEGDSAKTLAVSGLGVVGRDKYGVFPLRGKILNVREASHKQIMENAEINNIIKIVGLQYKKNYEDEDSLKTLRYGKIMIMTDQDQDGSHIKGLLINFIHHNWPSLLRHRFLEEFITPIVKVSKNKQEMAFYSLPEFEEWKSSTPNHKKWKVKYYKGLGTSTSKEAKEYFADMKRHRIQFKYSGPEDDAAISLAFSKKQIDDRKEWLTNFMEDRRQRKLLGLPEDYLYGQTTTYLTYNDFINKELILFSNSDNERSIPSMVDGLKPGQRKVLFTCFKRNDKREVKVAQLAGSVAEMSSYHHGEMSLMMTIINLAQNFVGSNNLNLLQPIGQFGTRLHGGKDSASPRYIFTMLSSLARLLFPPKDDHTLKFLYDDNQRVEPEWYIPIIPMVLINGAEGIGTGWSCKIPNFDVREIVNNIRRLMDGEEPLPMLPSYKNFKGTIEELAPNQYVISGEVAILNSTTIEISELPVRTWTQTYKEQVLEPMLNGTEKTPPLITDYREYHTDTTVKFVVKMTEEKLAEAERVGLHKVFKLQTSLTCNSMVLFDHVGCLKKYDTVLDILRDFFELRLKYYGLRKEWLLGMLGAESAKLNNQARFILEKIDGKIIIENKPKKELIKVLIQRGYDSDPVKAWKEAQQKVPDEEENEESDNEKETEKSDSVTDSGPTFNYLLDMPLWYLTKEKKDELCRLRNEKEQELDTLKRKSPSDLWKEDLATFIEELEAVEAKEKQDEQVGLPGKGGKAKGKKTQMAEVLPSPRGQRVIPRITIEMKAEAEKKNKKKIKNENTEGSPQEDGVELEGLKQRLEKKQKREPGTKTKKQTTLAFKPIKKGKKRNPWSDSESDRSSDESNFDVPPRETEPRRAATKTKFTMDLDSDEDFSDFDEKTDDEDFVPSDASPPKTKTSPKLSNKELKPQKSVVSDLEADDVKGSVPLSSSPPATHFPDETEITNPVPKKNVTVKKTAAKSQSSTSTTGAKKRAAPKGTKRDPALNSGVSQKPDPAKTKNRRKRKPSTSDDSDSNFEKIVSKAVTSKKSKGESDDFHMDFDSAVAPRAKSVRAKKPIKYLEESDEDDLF

As for `O=C1c2ccccc2C(=O)C1C(=O)C(c1ccccc1)c1ccccc1` [NCI-9138, 2-(diphenylacetyl)-1H-indene-1,3(2H)-dione], the IC50 was determined as 12.7 ± 4.5 µM in the experiment with RPMI-8226 (8226) (8226 cells, 72-h CT-Glo, log-phase (low-density), average ± SD, read-out: IC50); 9.4 µM in the experiment on RPMI-8226 (8226) (high-density cells, single agent (data not shown), read-out: IC50, viability of high-density cells); 22.2 µM in the experiment on NCI-H929 (H929); 28.3 µM in the experiment on HL-60; 21.3 µM with Kg-1a; 27.2 µM in the experiment with MCF-7. The IC50 was 29.2 µM in the experiment on SK-UT, 31.7 µM with FLOW and 30.1 µM in the experiment on WI-38. Besides, the “Nuclear export of topo IIα by immunofluorescence” value at topo IIα [1] (20 hours, high-density (plateau) MM cells) is listed as “overlapping staining of topo II with DAPI”. Besides, the “Fold-increase nuclear topo IIα” value at topo IIα [1] (H929 cells, nucleus v cytoplasm fluorescence vs untreated high-density controls) came to 2.61 fold. The “Export of topo IIα, nuclear-cytoplasmic fractionation” value on topo IIα [2] is reported as “strongly blocked export of topo IIα”. The “Nuclear export of p53” value in the experiment on p53 was “did not prevent export of p53”. The “Synergism of NCI-9138 in drug combinations” value in experiment [3] is recorded as “Synergism was seen with doxorubicin; also recorded: synergized exclusively with the topo II inhibitor doxorubicin”. Moreover, the “Cytoplasmic level / nuclear localization of topo IIα, fractionation Western blot” value on topo IIα [4] is reported as “reduced cytoplasmic levels of topo IIα equivalent to that produced by the CRM-1 inhibitor ratjadone C”.
